Source: US9937144B2, “Treatment of drug abuse by preventing GAPDH nitrosylation” (THE JOHNS HOPKINS UNIVERSITY, priority 2013, dated 2018)

Key:
[1] = target: GAPDH (Mus musculus, UniProt P16858); assay: Nuclear translocation of GAPDH in striatum of cocaine-treated mice
[2] = test system: SUV39H1, H3K9 trimethylation, c-fos; assay: Western blot/ChIP of striatum after behavioral-stimulant cocaine doses (SUV39H1, H3K9 trimethylation, c-fos)
[3] = test system: striatum; assay: TUNEL assay of cell death in striatum induced by cocaine; format: in vivo, mice; conditions: for cocaine induced cell death in striatum: MAO-B inhibitors with cocaine, FIG. 9B
Description: (§1) TUNEL assay. Primary neurons were grown on coverslips with a density of […] per 12-well. Cells were treated with deprenyl (2 μM), rasagaline (10 μM), lazabemide (10 μM) or pargyline (10 μM) for 16 hr and cell death was measured by TUNEL assays using TUNEL enzyme (Roche) and TUNEL label (Roche) following the manufacturer's instructions (Kickstein et al., 2010). To analysis cell death induced by neurotoxic dose of cocaine, we used TUNEL apoptosis detection kit (Millipore) using manufacturer's protocol (Lathia et al., 2010). Positive nuclei were counted in 30 fields (×400) for each slide.

[4] = test system: mice; conditions: for cocaine's locomotor activation, MAO-B inhibitor combined with cocaine: i.p. for 5 days, cocaine 30 mg/kg i.p., total beam breaks, FIGS. 4G and 4H
Description: Open-Field Test. Open-field assessments were conducted as described (Levine et al., 2011; Maze et al., 2010) with brief modifications. The open field is a square arena with the dimensions 47 cm 3 47 cm with a 38.1 cm high clear plastic wall. Activity chambers were computer interfaced for data sampling. Sixteen infrared photobeams in each direction (16×16), 2.77 cm spacing, were used to record movement. The San Diego PAS software recorded the total number of beam breaks, as well as the beam break's location in the center and peripheral areas.
Mice were divided in 5 groups (n=10-12 each). Each group of mice were injected (i.p.) with either CGP3466B or the MAO-B inhibitors deprenyl, rasagiline, lazabemide, and pargyline for 5 days. Mice were allowed to acclimate to the apparatus for 1 hr. After 60 min, mice received saline or cocaine (30 mg/kg of cocaine i.p.), and were returned to the open-field apparatus for a subsequent 75 min in which their activity was recorded. All data was measured in 5 min intervals and aggregated as necessary. Beam breaks or distance traveled for 20 min following cocaine/saline intraperitoneal injection after the first stage of testing were used to determine immediate peak locomotor response from cocaine injection. In between testing of mice, the arena was wiped with Vimoba cleaning solution. Mice were tested at the same time every day in order to minimize any variation due to circadian rhythm changes.

[5] = test system: mice; assay: Conditioned place preference; format: in vivo
Description: Conditioned Place Preference. The test was performed as described previously (Levine et al., 2011; Maze et al., 2010; Xi et al., 2011) with minor modifications. Two groups of wild-type mice were used to study the effect of CGP 3466B (0.15 mg/kg) on cocaine-(7 mg/kg) induced conditioned place preference or aversion. A three-chamber place preference apparatus was used. This apparatus consisted of two large side compartments and one small central compartment, which separated the large compartments. Two of the large compartments had different visual and tactile cues. One of the large compartments contained a green wire mesh floor. The second large compartment contained a cream-colored rubber floor. […]
Wild mice were divided into two groups. […] Experimental software (Any-Maze Video Tracking System v. 4.72) measured the amount of time each mouse spent in each of the three compartments.
For the next 10 days (days 2-11), mice entered the conditioning stage of testing with one session per day. […] On the probe trial day (24 hr after the last conditioning session), mice were given an injection of saline then were allowed to freely explore the three compartments for 15 min the time spent in each of the compartments was recorded by computer software. CPP score was calculated as time spent in cocaine chamber minus the time spent in saline/CGP3466B treated chamber.

[6] = target: T1, GAPDH nitrosylation (Mus musculus, UniProt P16858); conditions: as reported earlier (Hara et al., 2006); cited from earlier work
T1 construct: in the brains of mice treated with the neurotoxic agent; host or cells: mouse brain

[7] = target: T2, nitrosylation of GAPDH (SNO-GAPDH) (Mus musculus, UniProt P16858); assay: S-nitrosylation biotin switch assay in cocaine-treated primary cortical neurons; format: cell-based; conditions: 16 hr, deprenyl 2 nM, FIG. 4A
Excerpt: S-nitrosvlation biotin switch assay.

[8] = target: GAPDH binding to Siah1 (Homo sapiens, UniProt P04406); conditions: resultant of prevented GAPDH nitrosylation; cited from earlier work
[9] = test system: p53, PUMA; assay: p53 activation and PUMA induction in striatum after neurotoxic cocaine doses; format: in vivo, mice
Description: Sample Preparation from Cocaine-Injected Mice.
Chromatin immunoprecipitation (ChIP) assay.
Co-Immunoprecipitation. Striatum tissue were lysed in lysis buffer (50 mM Tris pH 7.4, 150 mM NaCl, 0.1% Chaps, 100 nM deferoxamine and 1 mM EDTA) and homogenized by passing through a 26-gauge needle. Crude lysates were cleared of insoluble debris by centrifugation at 14,000 g. IP buffer (50 mM Tris pH 7.4, 150 mM NaCl, 0.1% Chaps, 100 μM deferoxamine, 1 mM EDTA and 0.1 mg/ml BSA) was added to […] of cell lysates to bring samples to a total volume of 1 ml. Anti-Siah and anti-SUV39H1 antibody and 30 μl of protein G agarose were added and incubated on a rotator at 4° C. The protein G agarose was washed four times with lysis buffer and quenched with 30 μl of SDS sample buffer. Co-immunoprecipitates were resolved by SDS-PAGE and analyzed by western blotting with anti-GAPDH and anti-SUV39H1 antibodies.

[10] = target: T2, nitrosylation of GAPDH (SNO-GAPDH); assay: S-nitrosylation biotin switch assay on striatum lysates of cocaine-injected mice
[11] = Body weight of mice; format: in vivo; conditions: FIG. 8B
[12] = target: GAPDH nitrosylation (Homo sapiens, UniProt P04406); conditions: cited from earlier work; for GAPDH nitrosylation in vitro: as reported earlier (Hara et al., 2006)
[13] = test system: monoamine oxidase; conditions: Hara et al., 2006; cited from earlier work
[14] = test system: mice; assay: Rotarod performance; format: in vivo; conditions: for rotarod performance with cocaine: 5 days: deprenyl 0.25, rasagiline 2.5, pargyline 50, lazabemide 50 mg/kg, then cocaine 50 mg/kg, FIG. 9C
Description: Rotarod Performance. The test was performed as described previously (Xi et al., 2011) with minor modifications. A four-station mouse rotarod device (AccuScan Instruments) was used to study the effects of CGP3466B, Deprenyl, Rasagiline, Lazabemide and Pargyline on cocaine induced operant locomotion in mice. The speed of rotation of the rotarod was increased from 4 to 32 rpm over 7 min.
Mice were divided into 5 groups (n=8). For 5 days prior to testing mice received one dose of deprenyl (0.25 mg/kg), rasagiline (2.5 mg/kg), pargyline (50 mg/kg), lazabemide (50 mg/kg), or saline followed by a high dose of cocaine (50 mg/kg). Mice were placed on the rotarod at a starting speed of 4 rpm, and the speed of the rotarod was increased to 32 rpm over the course of 7 min. This was repeated for a total of three trials in a day, and the latency at which the mice fell off the rotarod was recorded. Mice were tested at the same time every day in order to minimize any variation due to circadian rhythm changes.

[15] = test system: primary cortical neurons; conditions: TUNEL, 16 hr; deprenyl 2 μM, rasagiline, lazabemide, pargyline 10 μM; FIG. 4B
Description: as §1

Chain of GAPDH nitrosylation (Homo sapiens, UniProt P04406) (P04406 whole entry): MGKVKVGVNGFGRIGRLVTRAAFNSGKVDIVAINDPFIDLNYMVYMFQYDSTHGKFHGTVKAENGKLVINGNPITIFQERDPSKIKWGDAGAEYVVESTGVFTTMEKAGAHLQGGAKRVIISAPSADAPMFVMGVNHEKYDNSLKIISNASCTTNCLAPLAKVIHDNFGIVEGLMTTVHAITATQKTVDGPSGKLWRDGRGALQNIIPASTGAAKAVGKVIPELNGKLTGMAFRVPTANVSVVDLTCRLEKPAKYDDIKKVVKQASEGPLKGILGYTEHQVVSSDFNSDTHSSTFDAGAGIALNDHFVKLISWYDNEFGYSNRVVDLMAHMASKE
T2 sequence (P16858 whole entry): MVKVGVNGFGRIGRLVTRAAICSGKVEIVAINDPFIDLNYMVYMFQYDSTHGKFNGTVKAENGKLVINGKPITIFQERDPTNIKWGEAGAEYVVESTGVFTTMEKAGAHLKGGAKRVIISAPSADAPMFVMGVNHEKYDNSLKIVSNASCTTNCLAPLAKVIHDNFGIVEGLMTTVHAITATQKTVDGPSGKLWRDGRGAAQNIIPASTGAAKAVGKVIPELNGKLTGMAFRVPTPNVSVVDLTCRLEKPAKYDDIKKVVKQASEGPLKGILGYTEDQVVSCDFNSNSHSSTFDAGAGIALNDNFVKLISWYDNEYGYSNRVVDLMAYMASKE
T1 sequence (P16858 whole entry): as above
Chain of GAPDH (P16858 whole entry): as above
Chain of GAPDH binding to Siah1 (P04406 whole entry): as the sequence (P04406 whole entry) above

## C#CCN(C)CC1=Cc2ccccc2Oc2ccccc21 [CGP3466B, N-(dibenz(b,f)oxepin-10-ylmethyl)-N-methyl-N-prop-2-ynylamine]
[1]; behavioral-stimulant doses of cocaine, FIG. 3C
  cocaine-elicited nuclear translocation of GAPDH: prevents
[1]; cocaine 30-50 mg/kg daily for 5 days, FIG. 5B
  nuclear translocation of GAPDH at higher doses of cocaine: prevented
[2]; FIG. 3E
  cocaine-elicited change of H3K9 trimethylation: prevented
[2]; behavioral-stimulant doses of cocaine, FIG. 3D
  degradation of SUV39H1: blocks
[2]; behavioral-stimulant doses of cocaine, FIGS. 3F-3G
  stimulation of c-fos expression: blocks
[3]; cocaine 30 and 50 mg/kg, chronic treatment with CGP3466B, FIG. 5F
  apoptosis (TUNEL) in striatum induced by cocaine: markedly reduces
[4]; CGP3466B 0.15 mg/kg IP once a day for 5 days, cocaine on the fifth day, open field, FIG. 3H
  locomotor stimulation by cocaine: substantially reduces
[4]; CGP3466B 0.15 mg/kg, no cocaine
  basal locomotor activity: no effect
[4]; mouse, in vivo
  central or peripheral movement: no adverse effects
[4]; nNOS knockout mice, FIG. 3I
  locomotor stimulation in nNOS knockout mice treated with cocaine: does not further decrease
[5]; CGP3466B 0.15 mg/kg 2 hr before each conditioning injection, cocaine 7 mg/kg, FIG. 3J
  cocaine preference (conditioned place preference): reduced
[5]; mice conditioned in the absence of CGP3466B, FIG. 6D
  conditioned place preference, single dose only on the day of testing: failed to alter
[6]
  GAPDH nitrosylation in the brains of mice treated with MPTP: potently inhibits
[7]
  cocaine-induced nitrosylation of GAPDH in cortical cultures: prevents
[8]
  GAPDH binding to Siah1: inhibition
[9]; FIG. 5E
  induction of PUMA level: blocks
[9]; FIGS. 5C and 5D
  activation of p53: blocks
[10]; 0.15 mg/kg CGP3466B, behavioral-stimulant doses of cocaine (5-30 mg/kg), FIG. 7A
  stimulation of GAPDH nitrosylation in striatum elicited by cocaine: almost completely blocks
[10]; cocaine 30-50 mg/kg daily for 5 days with or without CGP3466B, FIG. 5A
  nitrosylation of GAPDH in the striatum elicited by higher doses of cocaine: abolished
[11]
  body weight: no adverse effects
[12]
  GAPDH nitrosylation in vitro: potently inhibits
  concentrations at which nitrosylation of GAPDH is prevented: subnanomolar
[13]
  monoamine oxidase inhibitory activity: lack monoamine oxidase inhibitory activity
[14]; co-treatment with CGP3466B, cocaine 50 mg/kg, FIG. 5G
  increase of latency for falling off the rod: 2.5- to 3 fold

## C#CCN(C)[C@H](C)Cc1ccccc1 [deprenyl, R-(−)-N-methyl-N-(prop-2-ynyl)-2-aminophenylpropane]
[15]
  cell survival / cell death of primary cortical neurons: no effect
[3]
  cocaine induced cell death in striatum: do not rescue
[4]
  cocaine's locomotor activation, MAO-B inhibitor combined with cocaine: significantly decreases
[6]
  GAPDH nitrosylation in the brains of mice treated with MPTP: potently inhibits
[7]
  cocaine-induced nitrosylation of GAPDH in cortical cultures: prevents
[12]
  GAPDH nitrosylation in vitro: potently inhibits
[14]
  rotarod performance with cocaine: do not improve

## NCCNC(=O)c1ccc(Cl)cn1 [lazabemide]
[3]
  cocaine induced cell death in striatum: do not rescue
[4]
  cocaine's locomotor activation, MAO-B inhibitor combined with cocaine: greater locomotor stimulation than cocaine alone
[7]
  cocaine-induced nitrosylation of GAPDH in cortical cultures: do not prevent
[14]
  rotarod performance with cocaine: do not improve

## C#CCN(C)Cc1ccccc1 [pargyline]
[3]
  cocaine induced cell death in striatum: do not rescue
[4]
  cocaine's locomotor activation, MAO-B inhibitor combined with cocaine: greater locomotor stimulation than cocaine alone
[7]
  cocaine-induced nitrosylation of GAPDH in cortical cultures: do not prevent
[14]
  rotarod performance with cocaine: do not improve

## C#CCN[C@@H]1CCc2ccccc21 [rasagiline]
[3]
  cocaine induced cell death in striatum: do not rescue
[4]
  cocaine's locomotor activation, MAO-B inhibitor combined with cocaine: greater locomotor stimulation than cocaine alone
[7]
  cocaine-induced nitrosylation of GAPDH in cortical cultures: do not prevent
[14]
  rotarod performance with cocaine: do not improve
